Experiment [1] addresses purified DHFR of the reference strain S. aureus ATCC 25923 (Staphylococcus aureus, UniProt P0A017). Put plainly: Inhibition of purified DHFR of reference strain S. aureus ATCC 25923. It is filed as biochemical. An excerpt:
(§1) The inhibition of this enzyme was taken as a measurement for the antibacterial activity.

For experiment [2], the target named is T1, purified DHFR of the opportunistic pathogen P. carinii (Pneumocystis carinii, UniProt P16184).
T1 sequence (P16184 1-206): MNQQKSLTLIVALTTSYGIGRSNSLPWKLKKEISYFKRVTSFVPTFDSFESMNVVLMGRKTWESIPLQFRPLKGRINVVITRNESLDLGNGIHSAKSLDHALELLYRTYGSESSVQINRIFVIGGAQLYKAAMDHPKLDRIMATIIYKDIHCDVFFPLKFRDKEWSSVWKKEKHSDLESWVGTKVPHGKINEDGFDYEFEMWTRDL
Put plainly: biochemical.
Description: as §1

Broadly, the IC50 is the point on the concentration scale where inhibition reaches its midpoint. Higher therefore signals weaker potency.

purified DHFR of the reference strain S. aureus ATCC 25923, sequence (P0A017 whole entry): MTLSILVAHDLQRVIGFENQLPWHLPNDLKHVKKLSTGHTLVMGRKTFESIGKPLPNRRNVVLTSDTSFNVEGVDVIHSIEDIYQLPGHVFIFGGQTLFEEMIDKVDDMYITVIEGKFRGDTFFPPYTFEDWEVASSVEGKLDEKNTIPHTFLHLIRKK

`COc1cc(Cc2cnc(N)nc2N)c2c(c1OC)OC(CCCC(=O)O)C=C2` (racemic) [Example 6, (RS)-4-[5-(2,4-diamino-pyrimidin-5-ylmethyl)-7,8-dimethoxy-2H-1-benzopyran-2-yl]-butyric acid]: the half-inhibitory concentration (IC50) in experiment [1] worked out at 5 nM; in experiment [2], 220 nM.

`CCCCCC1C=Cc2c(Cc3cnc(N)nc3N)cc(OC)c(OC)c2O1` (racemic) [Example 7, (RS)-5-(7,8-dimethoxy-2-pentyl-2H-1-benzopyran-5-ylmethyl)-pyrimidine-2,4-diamine]: the results for the concentration for half-maximal inhibition (IC50) in experiment [1] and in experiment [2] were 16 nM and 2800 nM, respectively.

Consider `COc1cc(Cc2cnc(N)nc2N)c2c(c1OC)OC(C(C)C)C=C2` (racemic) [Example 8, (RS)-5-(2-isopropyl-7,8-dimethoxy-2H-1-benzopyran-5-ylmethyl)-pyrimidine-2,4-diamine], for which the concentration for half-maximal inhibition (IC50) was determined as 1 nM in experiment [1] and 1000 nM in experiment [2].

As to `COc1cc(Cc2cnc(N)nc2N)c2c(c1OC)OC(CC(C)C)C=C2` (racemic) [Example 9, (RS)-5-(2-isobutyl-7,8-dimethoxy-2H-1-benzopyran-5-ylmethyl)-pyrimidine-2,4-diamine], the half-maximal inhibitory concentration (IC50) in experiment [1] was 1 nM; in experiment [2], 3000 nM.

For `COc1c(OCCCC(=O)O)cc(Cc2cnc(N)nc2N)c2c1OCC=C2` [Example 10, 4-[5-(2,4-diamino-pyrimidin-5-ylmethyl)-8-methoxy-2H-1-benzopyran-7-yloxy]-butyric acid], the IC50 in experiment [1] was 5 nM; in experiment [2], 40 nM.

The values are drawn from patent US5773446A, “Diamino pyrimidines” (Hoffmann-La Roche Inc., priority 1995, dated 1998).
